# According to patent EP0096931B1, “Radiographic imaging agents” (priority 1982, dated 1983):
# Assay: Skeletal imaging with a scintillation camera after intravenous injection of the imaging agent
# Assay type: in vivo, human
# Settings: acid or its monosodium salt replaces AMDP in the Example I kit; compared with the Example I result
# Method: An imaging agent is prepared using this kit by adding about 5 ml of a pertechnetate-Tc99m physiological saline solution, with an activity of about 0.278 x 10^10 Bq (about 75 mCi), from a commercial technetium source. The vial is agitated until the kit components are dissolved. About 1 ml of the agent is slowly injected, over a period of about 30 seconds, into an adult human subject weighing about 75 kg.
row,Compound,"skeletal images, carrier used instead of AMDP in the kit of Example I"
1,"NCC(O)(P(=O)(O)O)P(=O)(O)O [ethane-1-hydroxy-2-amino-1,1-diphosphonic acid]",substantially similar results
2,"CN(C)C(P(=O)(O)O)P(=O)(O)O [methane-N,N-dimethylaminodiphosphonic acid]",substantially similar results
3,CNC(P(=O)(O)O)P(=O)(O)O [methane-N-methylaminodiphosphonic acid],substantially similar results
4,NC(O)(P(=O)(O)O)P(=O)(O)O [methaneaminohydroxydiphosphonic acid],substantially similar results
5,"NCCC(O)(P(=O)(O)O)P(=O)(O)O [propane-1-hydroxy-3-amino-1,1-diphosphonic acid]",substantially similar results
